Patent publication US7772187B2, “Substances directed against a specific sequence essential for heparanase catalytic activity and uses thereof as heparanase inhibitors” (Hadasit Medical Research Services and Development Company, …, priority 2004, dated 2010)
Each block holds one compound with its values, some of them ahead of it.

Assays:
heparanase [1] = target: T1, heparanase (Homo sapiens, UniProt Q9Y251); details: literature (Miao 1999; Parish 1999; Vlodavsky 1994); cited from earlier work
T1 sequence (Q9Y251 36-543): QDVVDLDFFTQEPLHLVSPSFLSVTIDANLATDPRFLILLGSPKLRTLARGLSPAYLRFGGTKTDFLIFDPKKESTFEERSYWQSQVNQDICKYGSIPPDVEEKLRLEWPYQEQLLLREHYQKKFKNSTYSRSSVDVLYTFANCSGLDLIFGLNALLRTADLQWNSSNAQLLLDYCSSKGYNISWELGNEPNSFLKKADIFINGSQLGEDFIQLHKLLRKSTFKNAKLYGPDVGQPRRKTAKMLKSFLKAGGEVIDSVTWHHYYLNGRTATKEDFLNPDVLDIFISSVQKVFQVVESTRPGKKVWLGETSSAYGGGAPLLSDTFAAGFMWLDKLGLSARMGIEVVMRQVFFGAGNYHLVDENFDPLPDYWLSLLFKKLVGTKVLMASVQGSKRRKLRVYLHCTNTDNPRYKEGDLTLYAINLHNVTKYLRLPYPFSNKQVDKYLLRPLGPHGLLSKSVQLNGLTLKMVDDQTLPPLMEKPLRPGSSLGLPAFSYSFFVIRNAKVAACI

heparanase processing [2] = test system: heparanase processing
Source text: In order to further rule out the plasma membrane as the heparanase processing site, heparanase was targeted to the cell membrane by introducing the PDGF-R transmembrane domain at the heparanase C-terminus.

heparanase processing [3] = details: U87 glioma cells pre-treated with 100 μM for 2 hours
Method: The latent 65 kDa heparanase protein was then added for the indicated time points and total cell lysates were analyzed for heparanase processing by immunoblotting as above.
Cells were then fixed and immunostained with anti heparanase monoclonal antibody (BD, upper panel) and anti heparanase (733, second panel) antibodies. Merge images are shown at the third panel.
For uptake studies, the 65 kDa heparanase precursor was added to confluent cell cultures at a concentration of 1 μg/ml under serum-free conditions. At the indicated time points, the medium was aspirated, cells were washed twice with ice-cold PBS and total cell lysates were prepared as described. Heparanase uptake and processing were analyzed by immunoblotting with antibody #1453.

heparanase processing [4] = assay: Heparanase processing in heparanase-transfected cells (immunoblot with antibody #1453); type: cell-based, human
Method: Total cell lysates were immunoblotted with anti-heparanase antibody #1453.
Total cell lysates were then analyzed for heparanase processing by immunoblotting as above.
Total cell lysates were analyzed by immunoblotting as above.
Cell extracts were prepared using a lysis buffer containing 50 mM Tris-HCl, pH 7.4, 150 mM NaCl, 0.5% Triton X-100, supplemented with a cocktail of protease inhibitors (Roche, Indianapolis, Ind.). Protein concentration was determined (Bradford reagent, BioRad, Hercules, Calif.) and 30 μg protein was resolved by SDS-PAGE under reducing conditions using 10% gels. After electrophoresis, proteins were transferred to PVDF membrane (BioRad) and probed with the appropriate antibody followed by HRP-conjugated secondary antibody (Jackson ImmunoResearch, West Grove, Pa.) and an enhanced chemiluminescent substrate (Pierce).

heparanase [5] = target: T2, heparanase (Homo sapiens, UniProt Q9Y251); assay: Heparanase activity assay, purified/recombinant active heparanase on 35S-labeled ECM; type: biochemical; details: recombinant active heparanase 40 ng, 2 h, pH 7, 10 μg or 25 μg peptide, dose dependent, versus scrambled peptide
T2 construct: a heterodimer composed of the 8 kDa polypeptide non-covalently associated with the 50 kDa heparanase subunit; ImClone Systems Inc. (gift of Dr Miao, not purchased)
T2 sequence (Q9Y251 158-543 limits assumed): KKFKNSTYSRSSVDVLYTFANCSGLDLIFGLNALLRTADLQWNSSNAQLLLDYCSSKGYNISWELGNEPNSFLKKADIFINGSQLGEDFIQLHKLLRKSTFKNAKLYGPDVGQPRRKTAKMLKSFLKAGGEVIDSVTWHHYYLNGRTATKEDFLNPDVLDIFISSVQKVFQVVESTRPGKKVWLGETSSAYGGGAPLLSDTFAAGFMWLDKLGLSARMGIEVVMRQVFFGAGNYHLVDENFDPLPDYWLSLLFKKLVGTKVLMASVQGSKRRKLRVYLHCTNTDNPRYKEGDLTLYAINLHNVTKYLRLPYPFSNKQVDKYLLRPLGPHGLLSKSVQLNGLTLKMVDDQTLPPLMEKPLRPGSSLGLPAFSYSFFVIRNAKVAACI
T2 sequence (Q9Y251 36-109 partner limits assumed): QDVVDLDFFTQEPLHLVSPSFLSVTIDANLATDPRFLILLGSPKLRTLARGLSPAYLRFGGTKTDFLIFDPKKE
Method: FIG. 6A. Purified, active heparanase (20 ng) was added to 1 ml RPMI medium and incubated with affinity-purified antibody #733 (10 μg, ▴), or rabbit IgG (♦) for 1 hour on ice, followed by 1 hour incubation with ^35S-labeled ECM. Heparanase activity was determined as described in ‘Experimental procedures’.
A Purified, recombinant active heparanase (40 ng) was incubated (2 h, pH 7) with 10 μg (▴) or 25 μg (▪) of a peptide containing the amino acid sequence of residues 158 to 171, or with a control, scrambled, peptide (♦). Note a dose-responsive inhibition of heparanase activity upon treatment with the 158-171 peptide.
Preparation of ECM-coated dishes and determination of heparanase activity were performed as described in detail elsewhere [Vlodavsky, I. Current protocols in Cell Biology Vol. 1 pp. 10.14.11-10.14.14, John Wiley & Sons, New York (1999b); Goldshmidt, O. et al., J. Biol. Chem. 276, 29178-29187 (2001); Goldshmidt (2002) ibid.]. […]
To further investigate the importance of this sequence in heparanase catalytic activity, competition experiments were next performed. In these experiments, recombinant active heparanase (40 ng) was incubated (2 h, pH 7) with different concentrations of a peptide containing the amino acid sequence of residues 158 to 171, or with a control scrambled peptide (Scr), and enzymatic activity was determined. […]

Compound: laminaran sulfate
- inhibition of heparanase activity (heparanase [1]): inhibit heparanase activity

- inhibition of processing of membrane-targeted heparanase (heparanase processing [2]): completely abolished
- inhibition of processing of exogenously-added heparanase (heparanase processing [3]): completely inhibited
Compound: CCN(CC)CCCC(C)Nc1ccnc2cc(Cl)ccc12 (stereo not shown) [chloroquine]
- reversibility of the inhibition of heparanase processing (heparanase processing [4]; heparanase-transfected C6 glioma cells, 50 μM 20 hours, then 24 hours chase in chloroquine-free medium): reversible
- inhibition of heparanase processing (heparanase processing [4]; heparanase-transfected HEK-293, MDA-435, C6 and NMU cells, increasing concentrations, 20 hours, dose dependent): completely inhibited

- inhibition of heparanase enzymatic activity (heparanase [5]): significantly inhibited
- inhibition of heparanase enzymatic activity (heparanase [5]; listed as Synthetic Peptide Comprising Amino Acid Residues 158 to 171 of Heparanase): Completely Blocks
Compound: KKFKNSTYSRSSVD (listed as Homo sapiens) [synthetic peptide of residues Lys158-Asp171 of human heparanase]

Compound: PI-88
- inhibition of heparanase activity (heparanase [1]): inhibit heparanase activity

Compound: CO/C1=C\C(C)=C\[C@@H](C)[C@@H](O)[C@@H](C)C/C(C)=C/C=C/[C@H](OC)[C@@H]([C@@H](C)[C@@H](O)[C@H](C)[C@@]2(O)C[C@@H](O)[C@H](C)[C@@H](C(C)C)O2)OC1=O [bafilomycin A1]
- inhibition of heparanase processing (heparanase processing [4]; heparanase-transfected C6 glioma and NMU cells, indicated concentration (nM), 20 hours): complete inhibition
- concentration that completely inhibited heparanase processing (heparanase processing [4]; transfected C6 glioma and NMU cells, 20 hours): ≤ 250 nM
